The text below walks through data of PubChem BioAssay (NCI).

Molecules are shown by their SMILES.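 Values below derive from 48-hour exposures of cells grown in 96-well plates, with endpoints linearly interpolated between the two concentrations bracketing the appropriate inhibition level. TGI marks complete inhibition of growth.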 Where a SMILES comes first, the peptide text is derived from it. [ ]: non-standard residue; d: D form. The star is where a group is joined. ξ: configuration not given here. ξF = NC(Cc1ccccc1)C(=O)O; Cbz = O=C(OCc1ccccc1)*

Holding throughout (experiment): NCI anticancer screen, dose series, 48 h
Assay [1] deals with ACHN renal.
The test system of assay [2] is CCRF-CEM leukemia.
Assay [3] concerns HOP-92 NSCLC.
The subject of assay [4] is HT29 colon.
Assay [5] relates to K-562 leukemia.
Assay [6] has as its system MCF7 breast.
In assay [7] the test system is MDA-MB-435.
The test system of assay [8] is NCI/ADR-RES ovarian.
Assay [9] has as its system SF-295 CNS.
The test system of assay [10] is SNB-19 CNS.
In assay [11] the test system is SR leukemia.
Assay [12] relates to T-47D breast.
Assay [13] has as its system UACC-257 melanoma.
Assay [14] concerns OVCAR-3 ovarian.

Turning to `CC1=NN(c2nc(N)nc(C(C)Cl)n2)C(C)(C)C1` (centres undefined), the TGI in [1], in [2], in assay [3], in assay [4], in assay [5] and in assay [6] was over 100 µM each time. The TGI in assay [7], in [8], in assay [9], in assay [10], in assay [11] and in assay [12] was over 100 µM throughout. In [13], this compound had a TGI of over 100 µM.
For `CCOC(=O)CNC(=O)C(Cc1ccccc1)NC(=O)OCc1ccccc1` (centres undefined) (Cbz-[ξF]-Gly-OEt), the TGI in assay [1], in assay [2], in [3], in assay [4], in assay [5] and in assay [6] was over 100 µM throughout. For the same compound, the TGI in assay [7], in [8], in assay [14], in [9], in assay [10] and in assay [11] was over 100 µM throughout. In addition, the TGI in assay [12] is over 100 µM.
Regarding `O=c1c(-c2ccccc2)nnc2n(Cc3ccccc3)c3ccccc3n12`, the TGI in assay [1], in assay [2], in assay [3], in assay [4], in [6] and in [7] was over 100 µM throughout. Besides, the TGI in [8], in assay [9], in [10], in assay [11], in [12] and in assay [13] was over 100 µM each time.
With `COC1(OC)CCc2c(sc3ncnc(Nc4cccc(Br)c4)c23)C1`, the TGI was over 100 µM in assay [1]; over 100 µM in [3]; 45.1 µM in [4]; over 100 µM in assay [5]; over 100 µM in [6]; over 100 µM in [7]. For the same compound, the TGI is 76.3 µM in assay [8]; over 100 µM in assay [14]; over 100 µM in assay [9]; over 100 µM in [10]; over 100 µM in assay [11]; 65.6 µM in [12]. In assay [13], this compound came in with a TGI of over 100 µM.
`O=c1cc(Nc2cccc(O)c2)[nH]c(=O)[nH]1`: the TGI in assay [1], in [2], in assay [3], in assay [4], in assay [5] and in assay [7] was over 100 µM in each case. Besides, the TGI in [8], in [14], in [9], in assay [10], in assay [11] and in assay [12] was over 100 µM in each case. Besides, in assay [13], the TGI was over 100 µM.
With `Cn1c2ccccc2c(=O)c2c(O)cc3c(c21)C1OCC(C)(O)C1O3` (centres undefined), the TGI in assay [1], in assay [2], in assay [4], in assay [5], in assay [6] and in assay [7] was over 100 µM throughout. The TGI in assay [8], in [10], in assay [11], in assay [12] and in assay [13] was over 100 µM each time.
With `Cc1cc(N(CCC#N)CCC#N)ccc1/C(N=Nc1ccccc1)=N\NC(=O)c1cc(Cl)ccc1O`, the TGI in assay [1] is 42.6 µM; in [2], 96.3 µM; in [4], 35.4 µM; in [5], over 100 µM; in assay [6], 67.9 µM; in [7], over 100 µM. In addition, the TGI is 72.7 µM in assay [8]; 72.8 µM in [14]; over 100 µM in assay [9]; over 100 µM in assay [10]; 79.5 µM in assay [11]; 55.9 µM in assay [12]. Besides, the TGI in [13] was 40.5 µM.
For `Cc1cc(C)c(-c2no/c(=N\S(=O)(=O)c3ccc(Cl)cc3)o2)c(C)c1`, the TGI was over 100 µM in assay [1]; over 100 µM in [2]; over 100 µM in assay [4]; over 100 µM in assay [5]; 56.1 µM in [6]; over 100 µM in assay [7]. The TGI in [8] is over 100 µM; in assay [14] it was over 100 µM; in assay [9], over 100 µM; in assay [10], over 100 µM; in assay [11], 55 µM; in assay [12], over 100 µM. The same compound registered a TGI in [13] of over 100 µM.
As to `Cc1ccc(N=N/C(=N/NC(=O)c2ccccc2)c2ccc(N(CCC#N)CCC#N)cc2C)cc1`, the TGI was over 100 µM in [1]; over 100 µM in assay [2]; 53.7 µM in assay [4]; over 100 µM in assay [5]; over 100 µM in assay [6]; over 100 µM in assay [7]. Also, the TGI in [8], in assay [14], in assay [9], in assay [10], in [11] and in assay [12] was over 100 µM throughout. Moreover, the TGI in assay [13] was over 100 µM.
`CCN1CCC(O)(c2ccc([N+](=O)[O-])cc2)C(C(=O)c2ccc([N+](=O)[O-])cc2)C1` (centres undefined): the TGI in [1] is 32 µM; in [2], over 100 µM; in [4], over 100 µM; in [5] it was over 100 µM; in assay [6], 31.4 µM; in assay [7] it was 43.5 µM. The TGI in [8] is over 100 µM; in assay [14], 31.5 µM; in [9], over 100 µM; in assay [10], over 100 µM; in [11], over 100 µM; in assay [12] it was 46.4 µM. For the same compound, the TGI in assay [13] came out at 33.7 µM.
As to `COC(=O)/C=C/c1ccc(OP(=O)(O)O)c(OC)c1`, the TGI in [1], in assay [2], in assay [3], in assay [4], in [6] and in assay [7] was over 100 µM each time. Further, the TGI in [14], in assay [9], in [10], in assay [11], in [12] and in assay [13] was over 100 µM each time.
